The assay addresses T1, MAP2K7 (Homo sapiens, UniProt O14733).
T1 construct: purified human MAP2K7 (Origene)
T1 sequence (O14733 2-419): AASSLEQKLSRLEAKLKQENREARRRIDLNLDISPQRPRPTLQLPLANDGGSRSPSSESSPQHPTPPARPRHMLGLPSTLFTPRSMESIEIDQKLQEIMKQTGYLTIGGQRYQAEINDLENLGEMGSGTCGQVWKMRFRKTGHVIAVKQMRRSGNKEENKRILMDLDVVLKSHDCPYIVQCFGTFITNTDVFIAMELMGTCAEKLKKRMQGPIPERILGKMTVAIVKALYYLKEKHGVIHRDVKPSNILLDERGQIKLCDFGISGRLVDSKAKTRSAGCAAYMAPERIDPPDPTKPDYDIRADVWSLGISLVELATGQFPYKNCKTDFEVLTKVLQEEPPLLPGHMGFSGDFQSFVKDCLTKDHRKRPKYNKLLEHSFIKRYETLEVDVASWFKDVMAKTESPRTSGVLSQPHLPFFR
Briefly: in vitro kinase assay (Kinase-Glo Plus / ADP-Glo), dead JNK2 substrate, 30-min preincubation. Type of assay: biochemical. In general terms: In Kinase-Glo more light means more ATP remaining.

For orientation: pIC50 means the negative decadic logarithm of the IC50, by convention in mol/L.

pIC50: −log10 of the molar value.

Take `COc1cc(O)c2c(c1)/C=C/C[C@H](O)[C@H](O)C(=O)/C=C\C[C@H](C)OC2=O` [5Z7O, 5Z-7-oxozeaenol]: the pIC50 is 5.92.

The record behind these values is PMC8416565 (Oncotarget, 2021).
